# According to the NIST ThermoML archive (doi:10.1021/je050525c):
# ± gives the expanded uncertainty stated by the source.
# Settings: Liquid, Ebulliometric method (Recirculating still)
SMILES,vapor or sublimation pressure (179.68 K),vapor or sublimation pressure (190.14 K),vapor or sublimation pressure (200.68 K),vapor or sublimation pressure (210.03 K)
CC [ethane],77 ± 4 kPa,136 ± 4 kPa,223 ± 4 kPa,336 ± 4 kPa
FC(F)(F)F [tetrafluoromethane],679 ± 5 kPa,1058 ± 6 kPa,1575 ± 7 kPa,2163 ± 9 kPa
